Results taken from PubChem BioAssay AID2060604 (Molecular Pharmacology Branch, DTP, NCI, 2025).

Tested on: 379773-124-R-J2-PDC complex spheroids, viability % test/control
Assay: Anticancer human tumor 379773-124-R-J2-PDC patient-derived endometrial carcinoma cell line growth inhibition [CLK]
Conditions: for IC50: curve of first compound; for viability, T/C: stronger effect = lower value
Method in brief: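 Patient-derived tumor cells grown as complex spheroids with HUVEC endothelial cells and mesenchymal stem cells, treated with drug combinations. Concentrations descend in half-log steps from near clinical Cmax, or from 10 microM if Cmax unknown.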

[1] = second compound 0.0316 µM, first compound 0.0316 µM
[2] = second compound 0.0316 µM, first compound 0.1 µM
[3] = second compound 0.0316 µM, first compound 0.316 µM
[4] = second compound 0.0316 µM, first compound 1 µM
[5] = second compound 0.0316 µM, first compound 3.16 µM
[6] = second compound 0.0316 µM, first compound 10 µM
[7] = second compound 0.1 µM, first compound 0.0316 µM
[8] = second compound 0.1 µM, first compound 0.1 µM
[9] = second compound 0.1 µM, first compound 0.316 µM
[10] = second compound 0.1 µM, first compound 1 µM
[11] = second compound 0.1 µM, first compound 3.16 µM
[12] = second compound 0.1 µM, first compound 10 µM
[13] = second compound 0.316 µM, first compound 0.0316 µM
[14] = second compound 0.316 µM, first compound 0.1 µM
[15] = second compound 0.316 µM, first compound 0.316 µM
[16] = second compound 0.316 µM, first compound 1 µM
[17] = second compound 0.316 µM, first compound 3.16 µM
[18] = second compound 0.316 µM, first compound 10 µM
[19] = second compound 1 µM, first compound 0.0316 µM
[20] = second compound 1 µM, first compound 0.1 µM
[21] = second compound 1 µM, first compound 0.316 µM
[22] = second compound 1 µM, first compound 1 µM
[23] = second compound 1 µM, first compound 3.16 µM
[24] = second compound 1 µM, first compound 10 µM
[25] = second compound 3.16 µM, first compound 0.0316 µM
[26] = second compound 3.16 µM, first compound 0.1 µM
[27] = second compound 3.16 µM, first compound 0.316 µM
[28] = second compound 3.16 µM, first compound 1 µM
[29] = second compound 3.16 µM, first compound 3.16 µM
[30] = second compound 3.16 µM, first compound 10 µM
[31] = second compound 10 µM, first compound 0.0316 µM
[32] = second compound 10 µM, first compound 0.1 µM
[33] = second compound 10 µM, first compound 0.316 µM
[34] = second compound 10 µM, first compound 1 µM
[35] = second compound 10 µM, first compound 3.16 µM
[36] = second compound 10 µM, first compound 10 µM
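Note: compound exposure lasted seven days before the viability readout.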
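Throughout, for viability, T/C: 100% = DMSO vehicle control wells.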

In the case of `COc1ccc([C@@H](O)c2cc(-c3ncnc4cc(N5CCOCC5)ccc34)c(F)cc2Cl)nn1` + CNC(=O)c1ccc(Nc2nc(OC3CCCC3)c3c(-c4ccc5nc(C)oc5c4)c[nH]c3n2)c(OC)c1, the IC50 (second compound 0.0316 µM) is reported as 3.42 µM, the IC50 (second compound 0.1 µM) is reported as < 0.0316 µM and the IC50 (second compound 0.316 µM) is reported as < 0.0316 µM. For the same molecule, the IC50 (second compound 1 µM) was < 0.0316 µM, the IC50 (second compound 3.16 µM) was < 0.0316 µM and the IC50 (second compound 10 µM) was < 0.0316 µM. The viability, T/C [1] was 79.2%, the viability, T/C [2] was 79.9% and the viability, T/C [3] was 68%. For the same molecule, the viability, T/C [4] was 60.6%, the viability, T/C [5] was 58.7% and the viability, T/C [6] was 20.4%. The viability, T/C [7] was 35.6%, the viability, T/C [8] was 30.8% and the viability, T/C [9] was 32.7%. It also gave a viability, T/C [10] of 29.7%, a viability, T/C [11] of 24% and a viability, T/C [12] of 12.7%. The viability, T/C [13] was 45.2%, the viability, T/C [14] was 38% and the viability, T/C [15] was 29%. For the same molecule, the viability, T/C [16] was 21.6%, the viability, T/C [17] was 15.1% and the viability, T/C [18] was 7.43%. For the same molecule, the viability, T/C [19] was 34.8%, the viability, T/C [20] was 35% and the viability, T/C [21] was 32.1%. For the same molecule, the viability, T/C [22] was 25.9%, the viability, T/C [23] was 14.9% and the viability, T/C [24] was 6.1%. For the same molecule, the viability, T/C [25] was 34.7%, the viability, T/C [26] was 32.3% and the viability, T/C [27] was 27.8%. The viability, T/C [28] was 19.3%, the viability, T/C [29] was 15.7% and the viability, T/C [30] was 4.62%. The viability, T/C [31] was 32.8%, the viability, T/C [32] was 33.7% and the viability, T/C [33] was 23.4%. It also gave a viability, T/C [34] of 17.9%, a viability, T/C [35] of 14.2% and a viability, T/C [36] of 4.23%.
In the case of `COc1cccc2c1C(=O)c1c(O)c3c(c(O)c1C2=O)CC(O)(C(=O)CO)CC3OC1CC(N)C(O)C(C)O1` (centres undefined) + CNC(=O)c1ccc(Nc2nc(OC3CCCC3)c3c(-c4ccc5nc(C)oc5c4)c[nH]c3n2)c(OC)c1, the IC50 (second compound 0.0316 µM) is reported as < 0.0316 µM, the IC50 (second compound 0.1 µM) is reported as < 0.0316 µM and the IC50 (second compound 0.316 µM) is reported as < 0.0316 µM. For the same molecule, the IC50 (second compound 1 µM) was < 0.0316 µM, the IC50 (second compound 3.16 µM) was < 0.0316 µM and the IC50 (second compound 10 µM) was < 0.0316 µM. For the same molecule, the viability, T/C [1] was 31.1%, the viability, T/C [2] was 6.01% and the viability, T/C [3] was 5.35%. The viability, T/C [4] was 3.7%, the viability, T/C [5] was 0.43% and the viability, T/C [6] was 0.22%. It also gave a viability, T/C [7] of 22.6%, a viability, T/C [8] of 6.93% and a viability, T/C [9] of 5.94%. The viability, T/C [10] was 3.46%, the viability, T/C [11] was 0.36% and the viability, T/C [12] was 0.17%. It also gave a viability, T/C [13] of 25.9%, a viability, T/C [14] of 4.93% and a viability, T/C [15] of 3.63%. It also gave a viability, T/C [16] of 2.73%, a viability, T/C [17] of 0.13% and a viability, T/C [18] of 0.11%. It also gave a viability, T/C [19] of 17.8%, a viability, T/C [20] of 4.68% and a viability, T/C [21] of 3.73%. It also gave a viability, T/C [22] of 1.18%, a viability, T/C [23] of 0.15% and a viability, T/C [24] of 0.06%. The viability, T/C [25] was 12%, the viability, T/C [26] was 5.12% and the viability, T/C [27] was 3.67%. For the same molecule, the viability, T/C [28] was 1.27%, the viability, T/C [29] was 0.08% and the viability, T/C [30] was 0.12%. The viability, T/C [31] was 9.36%, the viability, T/C [32] was 5.57% and the viability, T/C [33] was 3.11%. The viability, T/C [34] was 1.07%, the viability, T/C [35] was 0.14% and the viability, T/C [36] was 0.23%.
